Measured values from patent US20230365561A1, “BETA-LACTAMASE INHIBITORS AND THEIR PREPARATION” (NINGXIA ACADEMY OF AGRICUL TURE AND FORESTRY SCIENCES, priority 2020, published 2023).
Counter-ions that a name gives are not always drawn. Like-named read-outs stand apart in the source and are kept apart here.

What was measured:
Assay type in all cases: cell-based
[1] = system: E. coli clinical isolate (strain 1); assay: MIC by broth microdilution (alone and in combination with meropenam), strain 1; details: Escherichia coli, compound alone
Procedure: (§1) Compounds of the present invention alone, meropenam (MER) alone, and as a combination with test antibiotic (meropenam) were tested for antimicrobial activity by determing minimum inhibitory concentration (MIC, mg/L) using the broth microdilution method according to the guidelines of the Clinical Laboratories and Stansards Insitute (“Methods for Dilution Antimicrobial Suscetibility Tests for Bacterial that Grow Aerobiclly”, Approved standard, […]., Clinical and Laboratories Stanards Institute (CLSI) Document M7-A8, Wayne, Pa., USA, 2009). Meropenam as a test antibiotic compound was dissolved in DMSO. Meropenam was then diluted in microbial growth medium (Mueller-Hinton Broth II, cation adjusted) resulting in a final concention range of 0.125-64 mg/L in serial two-fold dilution. In all cases the filnal DMSO concentraion was less than 0.5%. Bacteria were added to 96-well microtitre plates containing the serial two-fold dilutions of the compoumds; the final cell density was appoximately 5x10^5 colony forming units/mL (CFU/mL). Plates were incubated at 37° C. for 18-24 hours and read visually. The MIC, i.e. the lowest concentration of the test compound that inhibited visible growth of the bacteria, was recorded. The same assay conditions were used when the compounds of present invention alone, and as a combination with test meropenam antibiotic compound was tested for minmum inhibitory concentration (MIC, mg/L). Whileest meropenam was serially diluted as descrribed above, a constant concentration of the present invention of 4 µg/mL was used.
(§2) Bacterial strains that were used to evaluate the antimicrobial activity using the MIC determination included but were not limited to E. coli clinical isolate (strain 1), E. coli 8739 (strain 2), K. pneumoniae clinical isolate (strain 3), K. pneumoniae 700603 (strain 4), E. cloacae clinical isolate (strain 5), E. cloacae 700323 (strain 6), A. baumannii clinical isolate (strain 7), A. baumannii 19606 (strain 8), P. aeruginosa clinical isolate (strain 9), P. aeruginosa 9027 (strain 10).

[2] = system: P. aeruginosa clinical isolate (strain 9); assay: MIC by broth microdilution (alone and in combination with meropenam), strain 9; details: Pseudomonas aeruginosa, compound alone
Procedure: as §1, §2

[3] = system: E. coli 8739 (strain 2); assay: MIC by broth microdilution (alone and in combination with meropenam), strain 2; details: Escherichia coli, compound alone
Procedure: as §1, §2

[4] = system: E. cloacae clinical isolate (strain 5); assay: MIC by broth microdilution (alone and in combination with meropenam), strain 5; details: Enterobacter cloacae, compound alone
Procedure: as §1, §2

[5] = system: A. baumannii 19606 (strain 8); assay: MIC by broth microdilution (alone and in combination with meropenam), strain 8; details: Acinetobacter baumannii, compound alone
Procedure: as §1, §2

[6] = system: K. pneumoniae 700603 (strain 4); assay: MIC by broth microdilution (alone and in combination with meropenam), strain 4; details: Klebsiella pneumoniae, compound alone
Procedure: as §1, §2

[7] = system: E. cloacae 700323 (strain 6); assay: MIC by broth microdilution (alone and in combination with meropenam), strain 6; details: Enterobacter cloacae, compound alone
Procedure: as §1, §2

[8] = system: K. pneumoniae clinical isolate (strain 3); assay: MIC by broth microdilution (alone and in combination with meropenam), strain 3; details: Klebsiella pneumoniae, compound alone
Procedure: as §1, §2

[9] = system: A. baumannii clinical isolate (strain 7); assay: MIC by broth microdilution (alone and in combination with meropenam), strain 7; details: Acinetobacter baumannii, compound alone
Procedure: as §1, §2

[10] = system: P. aeruginosa 9027 (strain 10); assay: MIC by broth microdilution (alone and in combination with meropenam), strain 10; details: Pseudomonas aeruginosa, compound alone
Procedure: as §1, §2

[11] = read-out: MIC, antibacterial activity of example alone

Measured: MIC

CN1CCC[C@H](C(=O)NC(=N)[C@@H]2CC[C@@H]3CN2C(=O)N3OS(=O)(=O)[O-])C1.[Na+] [Ex.28, Sodium (2S,5R)-2-(N-((S)-1-methylpiperidine-3-carbonyl)carbamimidoyl)-7-oxo-1,6-diazabicyclo[3.2.1]octan-6-yl Sulfate]
> 64 µg/mL: [1]; [11] | [2]; [11] | [3]; [11] | [4]; [11] | [5]; [11] | [6]; [11] | [7]; [11] | [8]; [11] | [9]; [11] | [10]; [11]

CC(=O)N1CCC[C@@H](C(=O)NC(=N)[C@@H]2CC[C@@H]3CN2C(=O)N3OS(=O)(=O)[O-])C1.[Na+] [Ex.27, Sodium (2S,5R)-2-(N-((R)-1-acetylpiperidine-3-carbonyl)carbamimidoyl)-7-oxo-1,6-diazabicyclo[3.2.1]octan-6-yl Sulfate]
> 64 µg/mL: [1]; [11] | [2]; [11] | [3]; [11] | [4]; [11] | [5]; [11] | [6]; [11] | [7]; [11] | [8]; [11] | [9]; [11] | [10]; [11]

N=C(NC(=O)c1cccnn1)[C@@H]1CC[C@@H]2CN1C(=O)N2OS(=O)(=O)O [Ex.12, (2S,5R)-7-oxo-2-(N-(pyridazine-3-carbonyl)carbamimidoyl)-1,6-diazabicyclo[3.2.1]octan-6-yl Hydrogen Sulfate]
> 64 µg/mL: [1]; [11] | [2]; [11] | [3]; [11] | [4]; [11] | [5]; [11] | [6]; [11] | [7]; [11] | [8]; [11] | [9]; [11] | [10]; [11]

CC(=O)NC1CCC(C(=O)NC(=N)[C@@H]2CC[C@@H]3CN2C(=O)N3OS(=O)(=O)[O-])CC1.[Na+] (stereo partly drawn) [Ex.40, Sodium (2S,5R)-2-(N-(4-acetamidocyclohexane-1-carbonyl)carbamimidoyl)-7-oxo-1,6-diazabicyclo[3.2.1]octan-6-yl Sulfate]
> 64 µg/mL: [1]; [11] | [2]; [11] | [3]; [11] | [4]; [11] | [5]; [11] | [6]; [11] | [7]; [11] | [8]; [11] | [9]; [11] | [10]; [11]

N=C(NC(=O)c1ccc(C(F)(F)F)cn1)[C@@H]1CC[C@@H]2CN1C(=O)N2OS(=O)(=O)[O-].[Na+] [Ex.50, Sodium (2S,5R)-7-oxo-2-(N-(5-(trifluoromethyl)picolinoyl)carbamimidoyl)-1,6-diazabicyclo[3.2.1]octan-6-yl Sulfate]
> 64 µg/mL: [1]; read-out: MIC | [2]; read-out: MIC | [3]; read-out: MIC | [4]; read-out: MIC | [5]; read-out: MIC | [6]; read-out: MIC | [7]; read-out: MIC | [8]; read-out: MIC | [9]; read-out: MIC | [10]; read-out: MIC

N=C(NC(=O)c1cccnc1)[C@@H]1CC[C@@H]2CN1C(=O)N2OS(=O)(=O)O [Ex.5, (2S,5R)-2-(N-nicotinoylcarbamimidoyl)-7-oxo-1,6-diazabicyclo[3.2.1]octan-6-yl Hydrogen Sulfate]
> 64 µg/mL: [1]; [11] | [2]; [11] | [3]; [11] | [4]; [11] | [5]; [11] | [6]; [11] | [7]; [11] | [8]; [11] | [9]; [11] | [10]; [11]

N=C(NC(=O)c1cscn1)[C@@H]1CC[C@@H]2CN1C(=O)N2OS(=O)(=O)[O-].[Na+] [Ex.16, Sodium (2S,5R)-7-oxo-2-(N-(thiazole-4-carbonyl)carbamimidoyl)-1,6-diazabicyclo[3.2.1]octan-6-yl Sulfate]
> 64 µg/mL: [1]; [11] | [2]; [11] | [3]; [11] | [4]; [11] | [5]; [11] | [6]; [11] | [7]; [11] | [8]; [11] | [9]; [11] | [10]; [11]

CC(=O)N1CCCC[C@@H]1C(=O)NC(=N)[C@@H]1CC[C@@H]2CN1C(=O)N2OS(=O)(=O)[O-].[Na+] [Ex.46, Sodium (2S,5R)-2-(N-((R)-1-acetylpiperidine-2-carbonyl)carbamimidoyl)-7-oxo-1,6-diazabicyclo[3.2.1]octan-6-yl Sulfate]
> 64 µg/mL: [1]; read-out: MIC | [2]; read-out: MIC | [3]; read-out: MIC | [4]; read-out: MIC | [5]; read-out: MIC | [6]; read-out: MIC | [7]; read-out: MIC | [8]; read-out: MIC | [9]; read-out: MIC | [10]; read-out: MIC

CN1CC[C@H](C(=O)NC(=N)[C@@H]2CC[C@@H]3CN2C(=O)N3OS(=O)(=O)[O-])C1.[Na+] [Ex.32, Sodium (2S,5R)-2-(N-((S)-1-methylpyrrolidine-3-carbonyl)carbamimidoyl)-7-oxo-1,6-diazabicyclo[3.2.1]octan-6-yl Sulfate]
> 64 µg/mL: [1]; [11] | [2]; [11] | [3]; [11] | [4]; [11] | [5]; [11] | [6]; [11] | [7]; [11] | [8]; [11] | [9]; [11] | [10]; [11]

N=C(NC(=O)c1cncnc1)[C@@H]1CC[C@@H]2CN1C(=O)N2OS(=O)(=O)O [Ex.10, Sodium (2S,5R)-7-oxo-2-(N-(pyrimidine-5-carbonyl)carbamimidoyl)-1,6-diazabicyclo[3.2.1]octan-6-yl Sulfate]
> 64 µg/mL: [1]; [11] | [2]; [11] | [3]; [11] | [4]; [11] | [5]; [11] | [6]; [11] | [7]; [11] | [8]; [11] | [9]; [11] | [10]; [11]

CC(=O)NC(=N)[C@@H]1CC[C@@H]2CN1C(=O)N2OS(=O)(=O)O [Ex.9, (2S,5R)-2-(N-acetylcarbamimidoyl)-7-oxo-1,6-diazabicyclo[3.2.1]octan-6-yl Hydrogen Sulfate]
> 64 µg/mL: [1]; [11] | [2]; [11] | [3]; [11] | [4]; [11] | [5]; [11] | [6]; [11] | [7]; [11] | [8]; [11] | [9]; [11] | [10]; [11]

CC(=O)N1CCC[C@H](C(=O)NC(=N)[C@@H]2CC[C@@H]3CN2C(=O)N3OS(=O)(=O)[O-])C1.[Na+] [Ex.26, Sodium (2S,5R)-2-(N-((S)-1-acetylpiperidine-3-carbonyl)carbamimidoyl)-7-oxo-1,6-diazabicyclo[3.2.1]octan-6-yl Sulfate]
> 64 µg/mL: [1]; [11] | [2]; [11] | [3]; [11] | [4]; [11] | [5]; [11] | [6]; [11] | [7]; [11] | [8]; [11] | [9]; [11] | [10]; [11]

N=C(NC(=O)Cc1ncccn1)[C@@H]1CC[C@@H]2CN1C(=O)N2OS(=O)(=O)[O-].[Na+] [Ex.25, Sodium (2S,5R)-7-oxo-2-(N-(2-(pyrimidin-2-yl)acetyl)carbamimidoyl)-1,6-diazabicyclo[3.2.1]octan-6-yl Sulfate]
> 64 µg/mL: [1]; [11] | [2]; [11] | [3]; [11] | [4]; [11] | [5]; [11] | [6]; [11] | [7]; [11] | [8]; [11] | [9]; [11] | [10]; [11]

N=C(NC(=O)C1CCNCC1)[C@@H]1CC[C@@H]2CN1C(=O)N2OS(=O)(=O)[O-].[Na+] [Ex.18, Sodium (2S,5R)-7-oxo-2-(N-(piperidine-4-carbonyl)carbamimidoyl)-1,6-diazabicyclo[3.2.1]octan-6-yl Sulfate]
> 64 µg/mL: [1]; [11] | [2]; [11] | [3]; [11] | [4]; [11] | [5]; [11] | [6]; [11] | [7]; [11] | [8]; [11] | [9]; [11] | [10]; [11]

CC(=O)N1CCC(C(=O)NC(=N)[C@@H]2CC[C@@H]3CN2C(=O)N3OS(=O)(=O)[O-])CC1.[Na+] [Ex.4, Sodium (2S,5R)-2-(N-(1-acetylpiperidine-4-carbonyl)carbamimidoyl)-7-oxo-1,6-diazabicyclo[3.2.1]octan-6-yl Sulfate]
> 64 µg/mL: [1]; [11] | [2]; [11] | [3]; [11] | [4]; [11] | [5]; [11] | [6]; [11] | [7]; [11] | [8]; [11] | [9]; [11] | [10]; [11]
